Results on eight compounds are retold here after PubChem BioAssay (NCI).

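96-well plates; 48 h exposure; 5 concentrations. Endpoints by linear interpolation between flanking doses. Not reached: highest tested concentration assigned. TGI is the concentration that stops growth completely.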 Some results are limits rather than exact numbers.

Among the test systems are 786-0 renal; HCC-2998 colon; HOP-92 NSCLC; HS 578T breast; MDA-MB-231 breast; MDA-MB-435; NCI-H460 lung; NCI/ADR-RES ovarian; OVCAR-4 ovarian; OVCAR-8 ovarian; RPMI-8226 leukemia; RXF 393 renal; SF-268 CNS; SF-295 CNS; SNB-75 CNS; SR leukemia; SW-620 colon; UACC-62 melanoma; UO-31 renal; MOLT-4 leukemia.
Holding throughout (assay): NCI-60 cell line screen, 48 h

As for `COc1ccc2sc(-n3nc4ccccc4c3Nc3nc4ccc(OC)cc4s3)nc2c1`, the TGI worked out at 3.87 µM with 786-0 renal; 5.47 µM in the test on HCC-2998 colon; 15.5 µM in the test on HOP-92 NSCLC; 5.61 µM in the test on HS 578T breast; 10.9 µM in the test with MDA-MB-231 breast; 12 µM in the test on MDA-MB-435. The TGI with NCI-H460 lung is above 38.9 µM; in the test on NCI/ADR-RES ovarian, 10.4 µM; in the test with OVCAR-4 ovarian, 6.82 µM; in the test with OVCAR-8 ovarian, 6.17 µM; in the test with RPMI-8226 leukemia, 7.12 µM; in the test on RXF 393 renal, 43.3 µM. The TGI with SF-268 CNS is 32.5 µM; with SF-295 CNS, 12.8 µM; in the test with SNB-75 CNS it was 9.92 µM; in the test on SR leukemia it was above 100 µM; with SW-620 colon, 36.4 µM; in the test with UACC-62 melanoma, 10.8 µM. The same compound returned a TGI in the test with UO-31 renal of 34 µM.
`CCOC(=O)Cc1nc2sc(S(N)(=O)=O)nn2c1Br`: the TGI in the test on 786-0 renal was 52.1 µM; in the test with HCC-2998 colon, 48.1 µM; with HOP-92 NSCLC it was 41.1 µM; with HS 578T breast, above 100 µM; with MDA-MB-231 breast it was 44.6 µM; with MDA-MB-435, above 100 µM. Further, the TGI with NCI-H460 lung was above 100 µM; in the test on NCI/ADR-RES ovarian, above 100 µM; with OVCAR-8 ovarian it was 47.7 µM; with RPMI-8226 leukemia, 73.5 µM; with RXF 393 renal, 69.8 µM; in the test on SF-268 CNS, above 100 µM. The TGI in the test with SF-295 CNS is above 100 µM; in the test with SNB-75 CNS it was above 100 µM; in the test with SR leukemia it was above 100 µM; in the test with SW-620 colon, 48 µM; with UACC-62 melanoma it was 36.1 µM; with UO-31 renal it was 29.4 µM.
Regarding `O=C(Cc1nccc2c1[nH]c1ccccc12)OC1C#CCSCC#C/C=C\1` (stereo not drawn), the TGI in the test on 786-0 renal, in the test with HCC-2998 colon, with HOP-92 NSCLC, in the test on HS 578T breast, in the test on MDA-MB-231 breast and with MDA-MB-435 was above 100 µM in each case. In addition, the TGI in the test with MOLT-4 leukemia, in the test with NCI-H460 lung, with NCI/ADR-RES ovarian, in the test with OVCAR-4 ovarian, in the test with OVCAR-8 ovarian and with RPMI-8226 leukemia was above 100 µM throughout. Moreover, the TGI in the test with RXF 393 renal, in the test with SF-268 CNS, with SF-295 CNS, with SR leukemia, in the test on SW-620 colon and in the test with UACC-62 melanoma was above 100 µM in each case. This compound came in with a TGI with UO-31 renal above 100 µM.
Turning to `COC1(OC)CC(CO)(CNc2cc(Cl)nc(N)n2)C1`, the TGI with 786-0 renal, in the test with HCC-2998 colon, in the test with HS 578T breast, in the test with MDA-MB-231 breast, in the test with MDA-MB-435 and in the test with MOLT-4 leukemia was above 100 µM in each case. Further, the TGI in the test on NCI-H460 lung, with NCI/ADR-RES ovarian, in the test with OVCAR-4 ovarian, with OVCAR-8 ovarian, in the test with RPMI-8226 leukemia and in the test on RXF 393 renal was above 100 µM in each case. Besides, the TGI with SF-268 CNS, in the test on SF-295 CNS, with SR leukemia, in the test with SW-620 colon, in the test on UACC-62 melanoma and in the test with UO-31 renal was above 100 µM throughout.
Take `CSCCCNC(=O)c1csc(-c2csc(C(CNC(=O)OC(C)(C)C)CNC(=O)OC(C)(C)C)n2)n1`: the TGI is above 100 µM in the test on 786-0 renal; above 100 µM with HOP-92 NSCLC; above 100 µM in the test with HS 578T breast; above 100 µM with MDA-MB-231 breast; above 100 µM with MDA-MB-435; 43.9 µM in the test on MOLT-4 leukemia. Also, the TGI with NCI-H460 lung is above 100 µM; in the test with NCI/ADR-RES ovarian, above 100 µM; with OVCAR-4 ovarian it was above 100 µM; in the test on OVCAR-8 ovarian it was above 100 µM; in the test with RPMI-8226 leukemia, 41.7 µM; in the test with RXF 393 renal it was above 100 µM. Moreover, the TGI in the test on SF-268 CNS is above 100 µM; with SF-295 CNS, above 100 µM; with SNB-75 CNS, above 100 µM; with SR leukemia, 70.1 µM; with SW-620 colon, above 100 µM; in the test on UACC-62 melanoma, 40.4 µM. The compound also registered a TGI in the test on UO-31 renal above 100 µM.
Turning to `COc1ccc(C(SCCO)(c2ccccc2)c2ccccc2)cc1`, the TGI worked out at 27 µM with 786-0 renal; 31.1 µM in the test with HCC-2998 colon; 25.4 µM in the test on HOP-92 NSCLC; 59.2 µM in the test with HS 578T breast; 31 µM in the test with MDA-MB-231 breast; 27.1 µM in the test with MDA-MB-435. The TGI in the test on MOLT-4 leukemia was above 100 µM; in the test with NCI-H460 lung, 27.5 µM; in the test with NCI/ADR-RES ovarian, 34.2 µM; in the test on OVCAR-4 ovarian, 31.4 µM; in the test on OVCAR-8 ovarian, 38.5 µM; in the test with RXF 393 renal it was 41 µM. Further, the TGI in the test on SF-268 CNS was 31.7 µM; in the test on SF-295 CNS, 28.6 µM; in the test on SNB-75 CNS, 25.7 µM; in the test with SR leukemia it was above 100 µM; in the test on SW-620 colon, 81.8 µM; in the test with UACC-62 melanoma, 28.1 µM. The TGI with UO-31 renal amounted to 28.1 µM.
`Cc1ccc(O)c(-c2cc(-c3cccc(Cl)c3)c(C#N)c(N)n2)c1`: the TGI in the test with 786-0 renal came to 46 µM; in the test on HOP-92 NSCLC it was 48.1 µM; in the test with HS 578T breast, 49.7 µM; in the test on MDA-MB-231 breast it was 54.4 µM; in the test on MDA-MB-435, 34.3 µM; with MOLT-4 leukemia it was 38.6 µM. For the same compound, the TGI in the test with NCI-H460 lung was 54 µM; in the test with NCI/ADR-RES ovarian, 90.4 µM; in the test on OVCAR-4 ovarian it was 41.3 µM; with OVCAR-8 ovarian it was above 100 µM; in the test on RPMI-8226 leukemia, 48.4 µM; in the test with RXF 393 renal, 47.8 µM. The TGI with SF-268 CNS was determined as 51.3 µM; with SF-295 CNS, 32.6 µM; with SR leukemia it was 30.3 µM; with SW-620 colon, 40.8 µM; in the test with UACC-62 melanoma, 35.9 µM; in the test with UO-31 renal it was 52.8 µM.
As for `NC1CC2NC3CCCCC3NC2CC1N` (stereo not drawn), the TGI with 786-0 renal is above 100 µM; in the test on HCC-2998 colon, above 100 µM; in the test on HS 578T breast, above 100 µM; in the test with MDA-MB-231 breast, above 100 µM; in the test on MDA-MB-435, above 100 µM; with MOLT-4 leukemia it was 92.9 µM. In addition, the TGI was above 100 µM in the test on NCI-H460 lung; above 100 µM in the test with NCI/ADR-RES ovarian; above 100 µM in the test on OVCAR-8 ovarian; above 100 µM in the test on RPMI-8226 leukemia; 94.5 µM with RXF 393 renal; above 100 µM in the test with SF-268 CNS. For the same compound, the TGI with SF-295 CNS, with SNB-75 CNS, with SR leukemia, in the test on SW-620 colon, in the test on UACC-62 melanoma and with UO-31 renal was above 100 µM throughout.
